According to publication PMC12040169 (PLOS Biology, 2025):

Experiment: in vitro
Settings: human, hela cells, % viability

SMILES	viability at 28.5 h, 10 µM
CC(=O)N1c2ccc(-c3cn4cc(C)ccc4n3)cc2CC1C (stereo not shown) [CBK285195]	82.5%
Cc1cccc2cnc(C3CCN(C(=O)c4cnn(C)c4C)CC3)cc12 [CBK285196]	88.2%
Cc1cccc2cnc(C3CCN(C(=O)CCc4ccno4)CC3)cc12 [CBK285197]	81%
COCC(=O)N1CCC(c2nc(C)n3c(C)csc23)CC1 [CBK285198]	96.7%
Cc1nc(C2CCCN(C(=O)c3ccncc3)C2)c2sccn12 (stereo not shown) [CBK285199]	90.8%
CCOC(=O)Cn1ccc2ccnc(-c3cccs3)c21 [CBK285200]	107%
Cc1nc(C2CCN(C(=O)c3ccn(C)n3)CC2)c2sccn12 [CBK285202]	93.4%
Cc1nc(C2CCN(C(=O)c3ccnn3C)CC2)c2sccn12 [CBK285203]	90.3%
OC1(c2cccnc2)C2CCCC1CN(Cc1ccc(F)cc1)C2 (stereo not shown) [CBK285204]	89.8%
Cc1n[nH]c(C)c1CC(=O)NC(Cc1cccs1)c1ccccn1 (stereo not shown) [CBK285208]	111%
Cn1cc(C(=O)NC(Cc2cccs2)c2ccccn2)ccc1=O (stereo not shown) [CBK285209]	112%
Cc1noc(C)c1C(=O)N1CCCC(c2nc(C)n3ccsc23)C1 (stereo not shown) [CBK285211]	103%
Cc1csc2c(C3CCCN(C(=O)C4CC4)C3)nc(C)n12 (stereo not shown) [CBK285212]	87.1%
Cc1csc2c(C3CCCN(C(=O)c4ccncc4)C3)nc(C)n12 (stereo not shown) [CBK285213]	100%
COCC(=O)N1CCCC(c2nc(C)n3c(C)csc23)C1 (stereo not shown) [CBK285214]	98.7%
Cc1csc2c(C3CCCN(C(=O)c4ccnn4C)C3)nc(C)n12 (stereo not shown) [CBK285215]	96.9%
CCNC(=O)C1(Cc2ccccc2-c2ccncc2)CCOCC1 [CBK285216]	100%
C=CCNC(=O)C1(Cc2ccccc2-c2cccnc2)CCOCC1 [CBK285217]	109%
CCNC(=O)C1(Cc2ccccc2-c2cccnc2)CCOCC1 [CBK285218]	103%
Cn1ccnc1C1(O)C2CCCC1CN(CC1CCCCC1)C2 (stereo not shown) [CBK285220]	91.5%
Cn1nc(C(Cc2ccccc2)NC(=O)c2ccco2)c2cccnc21 (stereo not shown) [CBK285223]	97.1%

SMILES	viability at 28.5 h, 10 µM
CC(=O)N1CCc2cc(-c3cc4c(C)cccn4c3)ccc21 [CBK285225]	96%
CC1Cc2cc(-c3cc4ccccn4c3)ccc2N1S(C)(=O)=O (stereo not shown) [CBK285227]	90.3%
Cc1nc(C2CCCN(C(=O)CCn3cccn3)C2)c2sccn12 (stereo not shown) [CBK285234]	86.7%
Cc1nc(C2CCCN(C(=O)c3cnn(C)c3)C2)c2sccn12 (stereo not shown) [CBK285236]	81.4%
Cc1nc(C2CCCN(C(=O)CCc3ccno3)C2)c2sccn12 (stereo not shown) [CBK285237]	87.5%
Cc1noc(C)c1C(=O)N1CCC(c2nc(C)n3ccsc23)CC1 [CBK285239]	101%
Cc1csc2c(C3CCN(C(=O)C4CC4)CC3)nc(C)n12 [CBK285241]	88.8%
Cc1csc2c(C3CCN(C(=O)c4ccccn4)CC3)nc(C)n12 [CBK285244]	77.4%
Cc1csc2c(C3CCN(C(=O)c4cc[nH]n4)CC3)nc(C)n12 [CBK285245]	91.9%
Cc1csc2c(C3CCN(C(=O)c4cscn4)CC3)nc(C)n12 [CBK285246]	80.2%
Cc1csc2c(C3CCN(C(=O)c4ccn(C)n4)CC3)nc(C)n12 [CBK285248]	105%
Cc1csc2c(C3CCN(C(=O)c4cnn(C)c4)CC3)nc(C)n12 [CBK285250]	89.7%
C=CCS(=O)(=O)N1CCC(c2nc(C)n3c(C)csc23)CC1 [CBK285251]	80%
Cc1ccn2cc(-c3ccc4c(c3)CCN4S(C)(=O)=O)cc2c1 [CBK285252]	83.8%
CC(=O)N1c2ccc(-c3cc4ccccn4c3)cc2CC1C (stereo not shown) [CBK285254]	79.9%
Cn1ncc2c1CCCN(C(=O)COc1cccc(F)c1)C2 [CBK285257]	96.9%
CC(=O)Nc1cc2ccccc2nc1C1CCN(C(=O)C(C)C)CC1 [CBK285259]	83.7%
COc1ccc([C@@]2(O)CC[C@@H]3CN(C(=O)C4CCCC4)C[C@@H]32)cc1 [CBK285260]	85%
CC(C)NC(=O)C1CC2CCC1(C)CC21NC(=O)c2ccccc2O1 (stereo not shown) [CBK285261]	92%
O=C(c1ccccc1F)N1CC2CCCC(C1)C2N1CCOCC1 (stereo not shown) [CBK285262]	79.9%
O=C(NC1CC1)[C@H]1CN(Cc2ccccc2)C[C@@H]1C(=O)c1ccccc1 [CBK285264]	105%

SMILES	viability at 28.5 h, 10 µM
Cc1ccc(-c2cc(C3CCN(C(=O)c4cnn(C)c4)C3)[nH]n2)cc1 (stereo not shown) [CBK285266]	85.4%
CC(C)CC(=O)N1C[C@H]2CCCN(Cc3ccccn3)[C@H]2C1 [CBK285269]	86.6%
Cc1cc(C)cc(OC(C)C(=O)N2CCCc3c(cnn3C)C2)c1 (stereo not shown) [CBK285270]	82.1%
Cc1n[nH]c(C)c1CC(=O)NC(Cc1ccsc1)c1ccccn1 (stereo not shown) [CBK285271]	105%
O=C(NC(Cc1ccsc1)c1ccccn1)c1ccc(=O)[nH]c1 (stereo not shown) [CBK285272]	106%
CCOc1ccc(CCC(=O)N2CCCc3c(cnn3C)C2)cc1 [CBK285276]	85.8%
C[C@]12C(=O)c3ccccc3NC(=O)C1[C@H]2C(=O)N1CCCCC1 (stereo partly shown) [CBK285281]	92%
CC(=O)N1C[C@H]2CCCN(S(=O)(=O)c3ccc(F)cc3)[C@H]2C1 [CBK285283]	88.8%
O=C(Cn1cccn1)NC(Cc1ccsc1)c1ccccn1 (stereo not shown) [CBK285284]	92.8%
CC(C)c1ccccc1OCC(=O)N1CCCc2c(cnn2C)C1 [CBK285287]	111%
CC(C)CC(=O)N1C[C@H]2CCCN(Cc3ccsc3)[C@H]2C1 [CBK285290]	102%
CC(C)(C)NC(=O)[C@@H]1CNC[C@]12Cc1ccccc1C(=O)N2 [CBK285294]	103%
Cc1ccc([C@@]2(O)CC[C@@H]3CN(S(=O)(=O)C(C)C)C[C@@H]32)cc1 [CBK285297]	97.8%
Cn1cc(C2CCCCCN2C(=O)c2cc(C3CC3)on2)cn1 (stereo not shown) [CBK285301]	104%
Cc1c(C(=O)N2CCCC(c3cnccn3)C2)oc2c(F)cccc12 (stereo not shown) [CBK285302]	96.3%
Cc1noc2nc(C3CCN(C(=O)C4CC4)CC3)cc(C(F)F)c12 [CBK285306]	95.8%
Cc1noc2nc(C3CCN(C(=O)C4CC4C)CC3)cc(C(F)F)c12 (stereo not shown) [CBK285307]	93%
O=C1NC2(CCc3ccccc31)CCN(C(=O)c1ccc(F)cc1)C2 (stereo not shown) [CBK285308]	102%
c1csc(-c2nnc(C3CCN(Cc4ccsc4)CC3)o2)c1 [CBK285309]	102%
CC(C)(C)C(=O)N1CCC(c2nnc3n2CCCCC3)CC1 [CBK285311]	88.7%
Cc1ccc(C(=O)N2C[C@H]3NC(=O)c4ccccc4C(=O)[C@@]3(C)C2)cc1 [CBK285315]	87.6%

SMILES	viability at 28.5 h, 10 µM
Cc1ccccc1C(=O)N1C[C@H]2NC(=O)c3ccccc3C(=O)[C@@]2(C)C1 [CBK285316]	99.7%
O=C(NCCc1c[nH]c2cccc(C3(O)CCCC3)c12)C1CC1 [CBK285319]	82.3%
Cn1cc([C@@H]2CN(Cc3cccs3)C[C@H]2N)c2ccncc21 [CBK285320]	98.9%
O=C(NC1CCN(CC2(c3ccccc3)CC2)CC1)c1ccco1 [CBK285321]	83.7%
O=C(NC1CCN(CC2(c3ccccc3)CC2)CC1)C1CCC1 [CBK285322]	98.9%
COc1ccc(CCC(=O)N2CCCc3c(cnn3C)C2)cc1 [CBK285326]	111%
CN(C)CC1CN(C(=O)Cc2ccccc2F)Cc2ccccc2O1 (stereo not shown) [CBK285327]	90.4%
OCC1CCCN(Cc2c(C3CCCC3)[nH]c3ncccc23)C1 (stereo not shown) [CBK285332]	96.1%
CC(=O)N1CCCN(Cc2c(C(C)C)[nH]c3ncccc23)CC1 [CBK285333]	103%
CN1CCN(Cc2c(C(C)(C)C)[nH]c3ncccc23)CC1 [CBK285334]	104%
CN1CCN(Cc2c(-c3ccc(F)cc3)[nH]c3ncccc23)CC1 [CBK285335]	85.4%
c1cnc2[nH]c(C3CCCC3)c(CN3CCOCC3)c2c1 [CBK285337]	77.5%
CC(=O)N1CCN(Cc2c(C3CCCC3)[nH]c3ncccc23)CC1 [CBK285339]	80%
CC(C)(C)c1[nH]c2ncccc2c1CN1CCSCC1 [CBK285340]	93.6%
CCN1CCN(Cc2c(C(C)(C)C)[nH]c3ncccc23)CC1 [CBK285341]	106%
CC(C)(C)c1[nH]c2ncccc2c1CN1CCCC(CO)C1 (stereo not shown) [CBK285342]	99.1%
O=C1NCCCC12CCN(Cc1cccs1)CC2 [CBK285346]	85.2%
C=CCNC(=O)Cn1cccc2cc(-c3ccc(OC)cc3)nc1-2 [CBK285348]	92.4%
CN(C)C(=O)Cn1cccc2cc(-c3ccc(F)cc3)nc1-2 [CBK285349]	105%
